Values joined by “and” are separate entries in the source; they are usually repeats but may differ in a detail not shown here. Equal entries are not always repeated.
Columns and labels:
[1] = after oral administration; cited from earlier work
[2] = Individual dose titration of sublingual nitroglycerin, side effects (Examples 1 and 2); assay type: in vivo, human
[3] = Phase IIa forced-titration trial of nitroglycerin sublingual powder in PAOD patients, interim analysis of headache (Example 3); assay type: in vivo, human; conditions: for Headache days (%): of study days corrected by drop-out days
Description: The patients are advised to take the dosages in the morning, noon and evening so that the short acting NO donor is administered in an intermittent manner.
Participants report adverse effects during the study with headache being one of the adverse effects.
The study has not yet been finalized but an interim analysis regarding headache as an adverse effect of the study drug has been performed (FIG. 2, Table 1-3).
At the time point of the interim analysis the study was still blinded, so with regard to patients' reported adverse event headache it could not be distinguished between the frequency of headache in the verum and the placebo group.
As the titration of the study medication takes place in the first 3 weeks, the analysis is focused on reported headache in the first three weeks plus in week 4 to also monitor possible late or ongoing side effects.
The analysis includes 35 participants so far which are at different time points of the study protocol. In FIG. 1 the individual headache days of the 35 participants are shown. Some participants have already reached the end of the 12-week treatment period and are in the follow-up period, some participants are still on treatment, but all participants […] have surpassed the titration phase and are on the final dosage of 0.7 mg GTN.

[4] = total of 2453 study days so far
[5] = weeks 1-4, of 927 corrected study days

In the case of `O=[N+]([O-])O[C@@H]1CO[C@H]2[C@@H]1OC[C@@H]2O` [isosorbide mononitrate], the Halftime [1] is listed as “around 5 hours”.

With `O=[N+]([O-])OCC(CO[N+](=O)[O-])O[N+](=O)[O-]` [nitroglycerin] the Side effects ([2]; Example 1, final dosage 0.7 mg after weekly increase 0.15-0.3-0.5-0.7 mg) was “without side effects”, the Side effects ([2]; Example 1, person, approximately 0.15 mg GTN TID sublingual powder) was “no headache or other known GTN side effects” and the Side effects ([2]; Example 1, sublingual nitroglycerin in a therapeutic dose, no titration) was “severe headache”. The Side effects ([2]; Example 2, 0.15 mg TID) was “no nausea or headache or other known GTN side effects”, the Side effects ([2]; Example 2, final dosage 0.4 mg TID after weekly increase 0.15-0.3-0.4 mg) was “without side effects” and the Side effects ([2]; Example 2, person, initial dose 0.4 mg sublingual, no titration) was “nausea and mild headache”. The “Remaining share of participant headache days when the 3 participants are excluded” value ([3]; 3 participants with possible chronic headache or migraine excluded) was 15%, the “Possibly headache related drop-outs” value ([3]; during the titration in the first 4 weeks) was “one” and the “Headache days of the 3 participants with possible chronic headache or migraine background” value ([3]; first 4 weeks) was 82 days. For the same compound, the “Participants in whom the headache lasted more than a week” value ([3]; first 4 weeks) was 5 participants, the “Share of headache days due to the 3 participants with possible chronic headache or migraine background” value ([3]; first 4 weeks) was 65% and the “Participants with headache on a single day” value ([3]; first 4 weeks, not during the first three days, of 35) was 6 participants. For the same compound, the “Participants with headache that lasted more than one day” value ([3]; first 4 weeks, of 35) was 6 participants, the “Additional participants dropped out due to headache” value ([3]; further course of the therapy) was 2 participants and the “Overall headache frequency in the present study” value ([3]; interim analysis, blinded) was “below 30%”. For the same compound, the “Headache days recorded for the 3 participants with continuous headache” value ([3]; overall study) was 209 days and 212 days, the “Share of total headache days due to the 3 participants with continuous headache” value ([3]; overall study) was 85% and the “Participants that have headache during the first days of treatment” value ([3]; starting dose 0.3 mg GTN) was 5 participants. For the same compound, the “Percentage of participants that have headache during the first days of treatment” value ([3]; starting dose 0.3 mg GTN) was 14.3%, the “Participant headache days recorded so far (overall study)” value [3, 4] was 245 days and 251 days and the “Percentage of headache days of total study days so far” value [3, 4] was 10%. For the same compound, the “Participants with possible chronic headache or migraine history” value ([3]; week 1) was 3, the “Headache corrected by participants with possible chronic headache or migraine history (%)” value (“Headache corrected by participants … (%)” below) ([3]; week 1, 0.3 mg GTN) was 20% and the “Participant headache days corrected by participants with possible chronic headache or migraine history (%)” value (“Participant headache days corrected … (%)” below) ([3]; week 1, 0.3 mg GTN) was 7.8%. For the same compound, the “Headache (%) of participants” value ([3]; week 1, 0.3 mg GTN, blinded) was 28.6%, the “Headache days (%)” value ([3]; week 1, 0.3 mg GTN) was 15.5% and the “Participants with possible chronic headache or migraine history” value ([3]; week 2) was 3. The “Headache corrected by participants … (%)” value ([3]; week 2, 0.5 mg GTN) was 11.4%, the “Participant headache days corrected … (%)” value ([3]; week 2, 0.5 mg GTN) was 4.2% and the “Headache (%) of participants” value ([3]; week 2, 0.5 mg GTN, blinded) was 20%. The “Headache (%) of participants” value ([3]; week 2, 0.5 mg GTN, blinded, listed as GTN) was 20.0%, the “Headache days (%)” value ([3]; week 2, 0.5 mg GTN) was 13.0% and the “Change of headache frequency as a result of the increased dosage” value ([3]; week 2, 3 or 4 versus week 1) was “did not monitor an increased headache frequency”. For the same compound, the “Participants with possible chronic headache or migraine history” value ([3]; week 3) was 3, the “Headache corrected by participants … (%)” value ([3]; week 3, 0.7 mg GTN) was 5.7% and the “Participant headache days corrected … (%)” value ([3]; week 3, 0.7 mg GTN) was 3.1%. The “Headache (%) of participants” value ([3]; week 3, 0.7 mg GTN, blinded) was 14.3%, the “Headache days (%)” value ([3]; week 3, 0.7 mg GTN) was 12.3% and the “Participants with possible chronic headache or migraine history” value ([3]; week 4) was 3. For the same compound, the “Headache corrected by participants … (%)” value ([3]; week 4, 0.7 mg GTN) was 0%, the “Participant headache days corrected … (%)” value ([3]; week 4, 0.7 mg GTN) was 0% and the “Headache (%) of participants” value ([3]; week 4, 0.7 mg GTN, blinded) was 8.6%. The “Headache days (%)” value ([3]; week 4, 0.7 mg GTN) was 9.7%, the “Headache days during the first 4 weeks” value [3, 5] was 118 days and 127 days and the “Overall percentage of headache days during the first 4 weeks” value [3, 5] was 12.7%.

From patent US20200276145A1, “REDUCING SIDE EFFECTS OF SHORT ACTING NO DONORS” (G. POHL-BOSKAMP GMBH & CO. KG, priority 2016, published 2020)
